Read-outs that look alike come from different tables or passages of the source.
Target: T1, OATP1B1 (Homo sapiens, UniProt Q9Y6L6)
T1 sequence (Q9Y6L6 1-691): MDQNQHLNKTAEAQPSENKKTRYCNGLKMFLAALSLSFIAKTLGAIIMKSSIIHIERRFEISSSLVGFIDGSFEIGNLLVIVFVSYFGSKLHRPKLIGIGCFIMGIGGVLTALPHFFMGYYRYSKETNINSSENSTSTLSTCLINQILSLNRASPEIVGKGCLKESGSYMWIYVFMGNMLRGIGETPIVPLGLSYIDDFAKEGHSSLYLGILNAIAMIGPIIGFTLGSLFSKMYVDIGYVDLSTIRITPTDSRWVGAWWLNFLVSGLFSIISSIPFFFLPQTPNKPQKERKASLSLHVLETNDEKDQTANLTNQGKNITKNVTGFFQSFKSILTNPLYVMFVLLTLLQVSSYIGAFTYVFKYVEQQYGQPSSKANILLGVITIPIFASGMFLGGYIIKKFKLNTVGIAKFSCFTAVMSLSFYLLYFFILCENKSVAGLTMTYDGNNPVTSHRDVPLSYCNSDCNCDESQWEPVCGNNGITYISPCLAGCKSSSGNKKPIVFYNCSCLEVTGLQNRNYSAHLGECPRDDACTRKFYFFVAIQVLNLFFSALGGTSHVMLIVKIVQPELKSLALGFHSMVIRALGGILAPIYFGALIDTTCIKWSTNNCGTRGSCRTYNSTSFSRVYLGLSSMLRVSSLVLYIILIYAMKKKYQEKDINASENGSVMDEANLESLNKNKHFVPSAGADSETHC

C[C@]12CC[C@@H]3c4ccc(O)cc4CC[C@H]3[C@@H]1CC[C@@H]2O[C@@H]1O[C@H](C(=O)O)[C@@H](O)[C@H](O)[C@H]1O [E17βG]
UPTAKE ACTIVITY pOATP1B1 (293-F cells, 0.2 × 10^6 cells/well, after thaw from cryopreservation): 20.2 pmol/mg/min
UPTAKE ACTIVITY pOATP1B1 (293-F in CD293, cryo, 24 hr post plating, 0.4×10^6 cells/well): 27.4 pmol/mg/min
UPTAKE ACTIVITY pOATP1B1 (293-F in CD293, cryo, 72 hr post plating, 0.4×10^6 cells/well): 9.9 pmol/mg/min
UPTAKE ACTIVITY pOATP1B1 (293-F in CD293, fresh, 48 hr post plating, 0.4×10^6 cells/well): 15.4 (85%) pmol/mg/min
UPTAKE ACTIVITY pOATP1B1 (FS293 cells, 0.2 × 10^6 cells/well, after thaw from cryopreservation): 10.5 pmol/mg/min
UPTAKE ACTIVITY pOATP1B1 (FS293 in Excell, cryo, 24 hr post plating, 0.4×10^6 cells/well): 36.4 pmol/mg/min
UPTAKE ACTIVITY pOATP1B1 (FS293 in Excell, cryo, 48 hr post plating, 0.4×10^6 cells/well): 10.0 pmol/mg/min
UPTAKE ACTIVITY pOATP1B1 (FS293 in Excell, cryo, 72 hr post plating, 0.4×10^6 cells/well): 6.6 pmol/mg/min
Uptake Activity (recovery time prior to cryopreservation 24 HOURS): 0.59 pmol/mg/min
Uptake Activity (recovery time prior to cryopreservation 30 MIN): 5.78 pmol/mg/min
